Experiment [1] relates to bacterial strains that express the class D cephalosporinase OXA-15. Description: Standard BLI potentiation MIC / synergy MIC (sMIC) assays run in the presence of a β-lactam, OXA-15 expressing strains. The class given is cell-based, E. coli. The conditions noted are these: BLI in combination with a β-lactam; comparison with Avibactam (comparator compound CCC). In a few lines:
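Isogenic E. coli DH10B carrying cloned β-lactamase genes on pBR322-derived plasmid (blaTEM-1 promoter, tetracycline 25 μg/mL) tested by CLSI broth microdilution in CAMHB. Test compound and β-lactam each diluted and combined; MIC reported in presence of β-lactam.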

Experiment [2] concerns bacterial strains that express KPC β-lactamases. Description: Standard BLI potentiation MIC / synergy MIC (sMIC) assays run in the presence of a β-lactam, KPC expressing strains. The class given is cell-based. The conditions noted are these: more active for at least one KPC strain and/or better spectrum of activity than Avibactam; BLI in combination with a β-lactam. An excerpt:
Unless otherwise indicated, the activity of the BLI compounds can be described by the MIC value obtained from a Synergy MIC assay or a BLI potentiation assay (e.g as described herein), both of which are run in the presence of a β-lactam.
A set of β-lactamase expressing isogenic E. coli strains was constructed by cloning a β-lactamase gene into a customized derivative of pBR322 (GenBank Accession Number J01749) and transforming the engineered plasmids into E. coli. The NdeI restriction site within the plasmid backbone of pBR322 was removed to generate pBR322 ΔNdeI. The pBR322 ΔNdeI vector itself, minus the blaTEM-1 gene, was amplified using two primers: (1) pBR-Pbla 5′-cgcatatgactettectttttcaatattattg-3, SEQ ID 1, a primer with an engineered NdeI restriction site at the 3′ end of the blaTEM-1 promoter and (2) pBR-vec-1 5′-[…]-3′, SEQ ID 2, a primer with an engineered BamHI restriction site at the 3′ end of the blaTEM-1 open reading frame. The chloramphenicol resistance gene, cat, was generated by PCR amplification from pKD3 (GenBank Accession Number AY048742) using primers with an engineered NdeI restriction site at the 5′ end (Pbla-cat 5′-[…]-3′, SEQ ID 3) and an engineered BamHI restriction site at the 3′ end (Vec-1-cat 5′-[…]-3′, SEQ ID 4) of the resistance gene. The two PCR products, pBR322 ΔNdeI and cat were ligated together generating pBR-CBST (pBR322 ΔNdeI ΔTEM-1::cat Seq. ID 5) which retains both the pBR322 tetracycline resistance cassette, tetA, and the plasmid origin of replication but the blaTEM-1 gene was replaced by the cat gene.
Using this engineering strategy a number of plasmids producing β-lactamase genes from different classes (see below) were generated using synthetic genes with an engineered NdeI restriction site at the 5′ end and BamHI restriction site at the 3′ end of each gene (GenScript). Both the synthetic β-lactamase genes and cat gene were ligated into the NdeI/BamHI sites of the pBR322 ΔNdeI PCR product and transformed into electrocompetent E. coli ElectroMax DH10B (Invitrogen/Life Technologies). E. coli DH10B harboring the recombinant plasmids were selected on LB agar (supplemented with 25 μg/mL tetracycline) and single isolated colonies were then inoculated into 5 mL LB media (supplemented with 25 μg/mL tetracycline), and incubated at 37° C. with aeration (250 rpm) for 18 hrs. The cultures were frozen back at −80° C. in 20% glycerol. The DNA sequence of the cloned β-lactamase genes was confirmed. The β-lactamase gene expression in the recombinant E. coli strains was driven by the blaTEM-1 promoter in the pBR-CBST plasmid and was characterized by MIC profiling of the E. coli recombinant strains against comparator β-lactam/BLI combinations in broth microdilution assay.
The experimental protocol was performed according to Clinical and Laboratory Standards Institute (CLSI) guidelines with modifications as described below (CLSI guidelines can be derived from the CLSI document M07-A9 published in January 2012: “Methods for Dilution Antimicrobial Susceptibility Tests for Bacteria That Grow Aerobically; Approved Standard-Ninth Edition”).
To prepare for MIC testing, frozen glycerol stocks of clinical isolates (Klebsiella pneumoniae, Eschericia coli, Enterobacter spp, Citrobacter spp, or Pseudomonas aeruginosa) were used to streak for isolated colonies on rich, non-selective, tryptic soy agar containing 5% sheep's blood (TSAB). Frozen glycerol stocks of laboratory engineered, isogenic E. coli strains, which contain cloned β-lactamase expressing plasmids were used to streak for isolated colonies on rich, selective LB agar supplemented with 25 μg/mL tetracycline to maintain the plasmid. All strains were incubated at 37° C. for 18-24 hrs.
On the day of testing, primary cultures were started by scraping off 5-10 colonies from the TSAB plates containing clinical strains or the tetracycline supplemented LB plates containing engineered strains. […]

Each structure is given as a SMILES string. Structures can show the parent of a compound that is named as a salt.

Data on 14 compounds can be found in US8962844B2, “1,3,4-oxadiazole and 1,3,4-thiadiazole β-lactamase inhibitors” (priority 2012, dated 2015).

As to `O=C1N2C[C@@H](CC[C@H]2c2nnc(CCC3CNC3)o2)N1OS(=O)(=O)O` [Compound 742, (2S,5R)-2-(5-(2-(azetidin-3-yl)ethyl)-1,3,4-oxadiazol-2-yl)-7-oxo-1,6-diazabicyclo[3.2.1]octan-6-yl hydrogen sulfate], in experiment [1], the “activity against bacterial strains that express the class D cephalosporinase OXA-15, compared with Avibactam” value is “more active than Avibactam”. Further, in experiment [2], the “activity and/or spectrum of activity against bacterial strains that express KPC β-lactamases, compared with Avibactam” value is reported as “more active than Avibactam”.
With `O=C1N2C[C@@H](CC[C@H]2c2nnc(CCCC3CNC3)o2)N1OS(=O)(=O)O` [Compound 743, (2S,5R)-2-(5-(3-(azetidin-3-yl)propyl)-1,3,4-oxadiazol-2-yl)-7-oxo-1,6-diazabicyclo[3.2.1]octan-6-yl hydrogen sulfate], the “activity against bacterial strains that express the class D cephalosporinase OXA-15, compared with Avibactam” value in experiment [1] is “more active than Avibactam”. Besides, in experiment [2], the “activity and/or spectrum of activity against bacterial strains that express KPC β-lactamases, compared with Avibactam” value is on record as “more active than Avibactam”.
`O=C1N2C[C@@H](CC[C@H]2c2nnc(COC3CNC3)o2)N1OS(=O)(=O)O` [Compound 744, (2S,5R)-2-(5-((azetidin-3-yloxy)methyl)-1,3,4-oxadiazol-2-yl)-7-oxo-1,6-diazabicyclo[3.2.1]octan-6-yl hydrogen sulfate]: the “activity against bacterial strains that express the class D cephalosporinase OXA-15, compared with Avibactam” value in experiment [1] is “more active than Avibactam”. In addition, the “activity and/or spectrum of activity against bacterial strains that express KPC β-lactamases, compared with Avibactam” value in experiment [2] is listed as “more active than Avibactam”.
Consider `O=C1N2C[C@@H](CC[C@H]2c2nnc(CCNC3CNC3)o2)N1OS(=O)(=O)O` [Compound 745, (2S,5R)-2-(5-(2-(azetidin-3-ylamino)ethyl)-1,3,4-oxadiazol-2-yl)-7-oxo-1,6-diazabicyclo[3.2.1]octan-6-yl hydrogen sulfate], for which, in experiment [1], the “activity against bacterial strains that express the class D cephalosporinase OXA-15, compared with Avibactam” value is given as “more active than Avibactam”. Also, the “activity and/or spectrum of activity against bacterial strains that express KPC β-lactamases, compared with Avibactam” value in experiment [2] is given as “more active than Avibactam”.
Regarding `N=C(N)N1CC(NCc2nnc([C@@H]3CC[C@@H]4CN3C(=O)N4OS(=O)(=O)O)o2)C1` [Compound 746, (2S,5R)-2-(5-(((1-carbamimidoylazetidin-3-yl)amino)methyl)-1,3,4-oxadiazol-2-yl)-7-oxo-1,6-diazabicyclo[3.2.1]octan-6-yl hydrogen sulfate], in experiment [1], the “activity against bacterial strains that express the class D cephalosporinase OXA-15, compared with Avibactam” value is “more active than Avibactam”. Besides, the “activity and/or spectrum of activity against bacterial strains that express KPC β-lactamases, compared with Avibactam” value in experiment [2] is given as “more active than Avibactam”.
With `N=C(N)N[C@H]1C[C@@H](c2nnc([C@@H]3CC[C@@H]4CN3C(=O)N4OS(=O)(=O)O)o2)C1` [Compound 749, (2S,5R)-2-(5-((1s,3R)-3-guanidinocyclobutyl)-1,3,4-oxadiazol-2-yl)-7-oxo-1,6-diazabicyclo[3.2.1]octan-6-yl hydrogen sulfate], the “activity against bacterial strains that express the class D cephalosporinase OXA-15, compared with Avibactam” value in experiment [1] is “more active than Avibactam”. Moreover, the “activity and/or spectrum of activity against bacterial strains that express KPC β-lactamases, compared with Avibactam” value in experiment [2] is “more active than Avibactam”.
Take `O=C1N2C[C@@H](CC[C@H]2c2nnc(C3CC4(CNC4)C3)o2)N1OS(=O)(=O)O` [Compound 750, (2S,5R)-2-(5-(2-azaspiro[3,3]heptan-6-yl)-1,3,4-oxadiazol-2-yl)-7-oxo-1,6-diazabicyclo[3.2.1]octan-6-yl hydrogen sulfate]: the “activity against bacterial strains that express the class D cephalosporinase OXA-15, compared with Avibactam” value in experiment [1] is reported as “more active than Avibactam”. The “activity and/or spectrum of activity against bacterial strains that express KPC β-lactamases, compared with Avibactam” value in experiment [2] is recorded as “more active than Avibactam”.
On to `N[C@H]1C[C@H](Cc2nnc([C@@H]3CC[C@@H]4CN3C(=O)N4OS(=O)(=O)O)o2)C1` [Compound 751, (2S,5R)-2-(5-(((1r,3S)-3-aminocyclobutyl)methyl)-1,3,4-oxadiazol-2-yl)-7-oxo-1,6-diazabicyclo[3.2.1]octan-6-yl hydrogen sulfate], for which the “activity against bacterial strains that express the class D cephalosporinase OXA-15, compared with Avibactam” value in experiment [1] was “more active than Avibactam”. Also, the “activity and/or spectrum of activity against bacterial strains that express KPC β-lactamases, compared with Avibactam” value in experiment [2] is recorded as “more active than Avibactam”.
`N=C(N)NC1CC(Cc2nnc([C@@H]3CC[C@@H]4CN3C(=O)N4OS(=O)(=O)O)o2)C1` (stereo partly drawn) [Compound 752, (2S,5R)-2-(5-((3-guanidinocyclobutyl)methyl)-1,3,4-oxadiazol-2-yl)-7-oxo-1,6-diazabicyclo[3.2.1]octan-6-yl hydrogen sulfate]: the “activity against bacterial strains that express the class D cephalosporinase OXA-15, compared with Avibactam” value in experiment [1] was “more active than Avibactam”. The “activity and/or spectrum of activity against bacterial strains that express KPC β-lactamases, compared with Avibactam” value in experiment [2] is “more active than Avibactam”.
For `N[C@H]1C[C@H](CCc2nnc([C@@H]3CC[C@@H]4CN3C(=O)N4OS(=O)(=O)O)o2)C1` [Compound 753, (2S,5R)-2-(5-(2-((1r,3R)-3-aminocyclobutyl)ethyl)-1,3,4-oxadiazol-2-yl)-7-oxo-1,6-diazabicyclo[3.2.1]octan-6-yl hydrogen sulfate], the “activity against bacterial strains that express the class D cephalosporinase OXA-15, compared with Avibactam” value in experiment [1] is given as “more active than Avibactam”. Moreover, in experiment [2], the “activity and/or spectrum of activity against bacterial strains that express KPC β-lactamases, compared with Avibactam” value is on record as “more active than Avibactam”.
With `N[C@H]1C[C@@H](CCc2nnc([C@@H]3CC[C@@H]4CN3C(=O)N4OS(=O)(=O)O)o2)C1` [Compound 754, (2S,5R)-2-(5-(2-((1s,3S)-3-aminocyclobutyl)ethyl)-1,3,4-oxadiazol-2-yl)-7-oxo-1,6-diazabicyclo[3.2.1]octan-6-yl hydrogen sulfate], the “activity against bacterial strains that express the class D cephalosporinase OXA-15, compared with Avibactam” value in experiment [1] is on record as “more active than Avibactam”. Besides, the “activity and/or spectrum of activity against bacterial strains that express KPC β-lactamases, compared with Avibactam” value in experiment [2] is recorded as “more active than Avibactam”.
Turning to `NC1CC(NCc2nnc([C@@H]3CC[C@@H]4CN3C(=O)N4OS(=O)(=O)O)o2)C1` (stereo partly drawn) [Compound 755, (2S,5R)-2-(5-(((3-aminocyclobutyl)amino)methyl)-1,3,4-oxadiazol-2-yl)-7-oxo-1,6-diazabicyclo[3.2.1]octan-6-yl hydrogen sulfate], in experiment [1], the “activity against bacterial strains that express the class D cephalosporinase OXA-15, compared with Avibactam” value was “more active than Avibactam”. In experiment [2], the “activity and/or spectrum of activity against bacterial strains that express KPC β-lactamases, compared with Avibactam” value is given as “more active than Avibactam”.
Take `N[C@H]1C[C@@H](NCc2nnc([C@@H]3CC[C@@H]4CN3C(=O)N4OS(=O)(=O)O)o2)C1` [Compound 756, (2S,5R)-2-(5-((((1s,3R)-3-aminocyclobutyl)amino)methyl)-1,3,4-oxadiazol-2-yl)-7-oxo-1,6-diazabicyclo[3.2.1]octan-6-yl hydrogen sulfate]: the “activity against bacterial strains that express the class D cephalosporinase OXA-15, compared with Avibactam” value in experiment [1] was “more active than Avibactam”. Also, the “activity and/or spectrum of activity against bacterial strains that express KPC β-lactamases, compared with Avibactam” value in experiment [2] is given as “more active than Avibactam”.
Take `O=C1N2C[C@@H](CC[C@H]2c2nnc([C@H]3CCNC3)o2)N1OS(=O)(=O)O` [Compound 758, (2S,5R)-7-oxo-2-(5-((S)-pyrrolidin-3-yl)-1,3,4-oxadiazol-2-yl)-1,6-diazabicyclo[3.2.1]octan-6-yl hydrogen sulfate]: the “activity against bacterial strains that express the class D cephalosporinase OXA-15, compared with Avibactam” value in experiment [1] was “more active than Avibactam”. Also, in experiment [2], the “activity and/or spectrum of activity against bacterial strains that express KPC β-lactamases, compared with Avibactam” value was “more active than Avibactam”.
